Measurements from patent publication US12201626B2, “Bifunctional compositions for the treatment of cancer” (ARMACEUTICA, INC., priority 2018, dated 2025).

Assays:
[1] = tested on: MDA-MB-231 cells; test: Cell cycle profile and DNA fragmentation, DAPI flow cytometry; assay type: cell-based, human; conditions: 72 h
Description: (§1) Asynchronous cultures in the exponential growth phase of MDA-MB-231 and HL-60 cells in 24-well plates were treated with several doses of PND. After 72 h of incubation, cells were centrifuged and treated as in the previous section, fixed, permeabilized and stained with a DNA intercalating fluorophore, 4,6-Diamidino-2-phenylindole (DAPI); those three steps were accomplished by adding to the cells 200 μl of a single nuclear isolation medium (NIM)-DAPI solution (Beckman Coulter). The cell suspension was then incubated for an additional 3 min at room temperature in the dark. The controls included in the series of experiments were similar to those described for the above experiments. Approximately, 20,000 events/cells were collected per sample by using a flow cytometer equipped with a solid state 405 nm laser (Gallios; Beckman Coulter). The acquisition and distribution of cell subpopulations within each cell cycle facets were accomplished by utilizing Kaluza flow cytometry software (Beckman Coulter). Additionally, doublets were effectively eliminated by including a single cells gate in the acquisition cell cycle protocol.

[2] = tested on: HL-60 cells; test: as above; assay type: cell-based, human; conditions: 72 h
Description: as §1

[3] = tested on: Calf Thymus DNA; test: Circular dichroism spectroscopy; assay type: binding; conditions: PND/DNA molar ratios 0.03-0.3; 30 min and 20 h
Description: Circular dichroism (CD) spectra measurements were taken in a JASCO-1100 spectropolarimeter equipped with a Xenon lamp (JASCO, Easton, MD). CT DNA and buffers were purchased from Sigma Aldrich. A CT DNA stock solution was prepared in Tris/HCl buffer (5 mM Tris/HCl, 50 mM NaCl, pH=7.39) and its concentration (4.325 mM) was spectrophotometrically determined using molar extinction coefficient 6600 M−1 cm−1 at 260 nm. A 150 μM dilution in Tris/HCl buffer was prepared and used for the experiments. A 2.0 mM stock solution of PND was freshly prepared in MQ water prior to use. The appropriate volume of this solution was added to 3 ml working solutions of 150 μM CT DNA to achieve molar ratios of 0.03, 0.06, 0.2 and 0.3 PND/DNA. Samples were prepared in triplicate and incubated for 30 minutes and 20 hours. All CD spectra of DNA and DNA/PND were recorded at 25° C. over the range 205-380 nm and finally corrected with a blank and noise reduction. The final data is the average of three experiments and it is expressed in millidegrees (mdegs).

[4] = tested on: CEM cell line; test: Differential Nuclear Staining (DNS) cytotoxicity assay; assay type: cell-based, human
Excerpt: In this study, 19 human cell lines were utilized: seven breast human cancer; MDA-MB-468, MCF-7, T47D, HCC1419, HCC70, MDA-MB-231 (triple negative) and its lung metastatic (LM) derivative MDA-MB-231 LM2; four human leukemia/lymphoma cells, HL-60, Ramos, Jurkat and CEM, three human ovarian cancer, Ovcar 8, Ovcar 5 and Ovcar 3, one lung cancer, one melanoma and one pancreatic cell line, A549, A375, Panc-1 respectively. Furthermore, for selectivity/comparative purposes, the cell lines from the non-cancerous origin, MCF-10A, HS-27 were also included. […] The adherent cells, growing in the logarithmic growth phase at a 60-75% confluence, were detached by utilizing a HyQtase enzyme (Thermo Fisher Scientific Inc.), counted and seeded in 96-well plates at 10,000 cells density in 100 μL of culture medium per well. […]
To analyze the potential cytotoxic activity of PND, the Differential Nuclear Staining (DNS) assay, which was validated for high-throughput screening (HTS) using live-cell bio-imaging was utilized. […] Montages of 2 by 2 images were captured directly from each individual well of the culture plates by using a multi-well plate reader IN Cell 2000 analyzer, an HTS and high-content analysis (HCA) system (GE Healthcare Life Sciences, Pittsburgh, PA). […] Each experimental data point, as well as controls, were assessed in triplicates. […]

[5] = concentration-dependent, P<0.0005

COC1=CC=C2Nc3cc(Cl)ccc3C(N=C3C=C(CN4CCCC4)C(=O)C(CN4CCCC4)=C3)=C2N1 [PND, 4-[(7-chloro-2-methoxy-1,5-dihydrobenzo[b][1,5]naphthyridin-10-yl)imino]-2,6-bis(pyrrolidin-1-ylmethyl)cyclohexa-2,5-dien-1-one]
G0/G1 cell subpopulation [1]: significant decrease | DNA fragmentation (sub-G0/G1 subpopulation) [1, 5]: significant increase | S and G2/M subpopulations ([1]; vs PBS and untreated controls): decreased | decrease of G0/G1 cell subpopulation [2]: not observed | DNA fragmentation (sub-G0/G1 subpopulation) [2, 5]: significant increase | S and G2/M subpopulations ([2]; vs PBS and untreated controls): decreased | change of CD spectra of CT DNA [3]: increase the intensity of both the negative and the positive bands | selectivity (SCI) [4]: poor selectivity
